Drawing on patent publication US6017919A, “Compounds and pharmaceutical use thereof” (Japan Tobacco Inc., priority 1996, dated 2000), this text covers Ki, C/S and ED50 for 24 molecules.

Where two headings read alike, the source gives them in different places. Where only a bound is given, the exact number is not on record here.

Experiment [1] addresses T1, cannabinoid central type (CB1) receptor (Rattus norvegicus, UniProt P20272).
T1 construct: rat cerebellar membrane fraction and spleen cells were respectively used; from tissue; host or cells: rat cerebellar membrane fraction (male SD rats, 7-9 weeks old)
In words: Binding assay, cannabinoid central type receptor (CB1), rat cerebellar membrane fraction, [3H]Win55212-2. How it is done: (§1) [I] Binding Assay (in vitro)
(§2) As the sample rich in cannabinoid central type (CB1) and peripheral type (CB2) receptors, rat cerebellar membrane fraction and spleen cells were respectively used (male SD rats, 7-9 weeks old). A sample (cerebellar membrane fraction: 50 μg/ml or spleen cells: 1×10^7 cells/ml), labeled ligand ([^3 H]Win55212-2, 2 nM) and unlabeled Win55212-2 or a test compound were plated in round bottom 24 well plates, and incubated at 30° C. for 90 min in the case of cerebellar membrane fraction, and at 4° C. for 360 min in the case of spleen cells. As the assay buffer, 50 mM Tris solution containing 0.2% BSA was used for cerebellar membrane fraction, and 50 mM Tris-HBSS containing 0.2% BSA was used for spleen cells. After incubation, the samples were filtrated through a filter (Packard, Unifilter 24 GF/B) and dried. A scintillation solution (Packard, Microsint-20) was added, and the radioactivity of the samples was determined (Packard, Top count A9912V). The non-specific binding was determined by adding an excess Win55212-2 (1 μM), and specific binding was calculated by subtracting non-specific binding from the total binding obtained by adding the labeled ligand alone. The test compounds were dissolved in DMSO to the final concentration of DMSO of 0.1%. IC50 was determined from the proportion of the specifically-bound test compounds, and the Ki value of the test compounds was calculated from IC50 and Kd value of [^3 H]Win55212-2.

Experiment [2] concerns the target T2, cannabinoid peripheral type (CB2) receptor (Rattus norvegicus, UniProt Q9QZN9).
T2 construct: rat cerebellar membrane fraction and spleen cells were respectively used; from tissue; host or cells: rat spleen cells (male SD rats, 7-9 weeks old)
T2 sequence (Q9QZN9 1-360): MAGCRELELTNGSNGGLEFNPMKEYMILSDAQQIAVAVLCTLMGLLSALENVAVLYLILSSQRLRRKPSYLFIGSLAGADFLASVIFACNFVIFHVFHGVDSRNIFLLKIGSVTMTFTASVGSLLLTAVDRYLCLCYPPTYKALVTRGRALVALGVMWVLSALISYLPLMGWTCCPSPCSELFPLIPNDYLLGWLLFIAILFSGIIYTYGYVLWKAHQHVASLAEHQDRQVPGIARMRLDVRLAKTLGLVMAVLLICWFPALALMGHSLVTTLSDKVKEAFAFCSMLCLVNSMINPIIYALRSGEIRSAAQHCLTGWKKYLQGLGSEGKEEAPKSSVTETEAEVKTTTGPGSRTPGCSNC
In words: Binding assay, cannabinoid peripheral type receptor (CB2), rat spleen cells, [3H]Win55212-2. To be noted: for Ki: rat spleen cells, [3H]Win55212-2 2 nM, 4° C. 360 min, read-out: Ki value, Peripheral receptor (S); for C/S: ratio of Ki central receptor (C) to Ki peripheral receptor (S). How it is done:
as §1, §2

Experiment [3] relates to Carageenan-induced paw edema. In words: Carageenan-induced paw edema model. Type of experiment: in vivo, female ddy mice. The following applies: Mus musculus; po, mice, 1 h before carageenan; paw volume 3 h later. How it is done:
[II] Carageenan-induced paw edema model (in vivo)
Female ddy mice (6-8 weeks old) were used. […] One hour after the administration, 50 μL of 1% carageenan dissolved in physiological saline was intradermally injected into the right foot pad. Three hours later, the volume of the right paw was measured and compared with that measured before the carageenan injection.
(§3) In both [II] and [III], the test compounds were dissolved in DMSO and used upon dilution with olive oil (final concentration of DMSO 1%).

The test system of experiment [4] is Sheep red blood cell-induced delayed type hypersensitivity. In words: Sheep red blood cell (SRBC)-induced delayed type hypersensitivity (DTH) model. Type of experiment: in vivo, female ddy mice. To be noted: Mus musculus, Erythrocyte; po, mice, 1 h before SRBC challenge; paw volume 24 h after induction. How it is done:
[III] Sheep red blood cell (SRBC)-induced delayed type hypersensitivity (DTH) model (in vivo)
Female ddy mice (6-8 weeks old) were used. On day 1, SRBC 10^7 cells were intradermally injected into the left foot pad of the mice (40 μl/foot) to immunize the mice. Five days later, the test compounds dissolved in olive oil were orally administered at 10 ml/kg. One hour later, SRBC 10^8 cells were intradermally injected into the right foot pad to induce the response. Twenty-four hours after the induction, the volume of the both paws was measured, and edema ratio was calculated by […].
as §3

[5] abbreviates: rat cerebellar membrane fraction, [3H]Win55212-2 2 nM, 30° C. 90 min, read-out: Ki value, Central receptor (C).

T1 sequence (P20272 whole entry): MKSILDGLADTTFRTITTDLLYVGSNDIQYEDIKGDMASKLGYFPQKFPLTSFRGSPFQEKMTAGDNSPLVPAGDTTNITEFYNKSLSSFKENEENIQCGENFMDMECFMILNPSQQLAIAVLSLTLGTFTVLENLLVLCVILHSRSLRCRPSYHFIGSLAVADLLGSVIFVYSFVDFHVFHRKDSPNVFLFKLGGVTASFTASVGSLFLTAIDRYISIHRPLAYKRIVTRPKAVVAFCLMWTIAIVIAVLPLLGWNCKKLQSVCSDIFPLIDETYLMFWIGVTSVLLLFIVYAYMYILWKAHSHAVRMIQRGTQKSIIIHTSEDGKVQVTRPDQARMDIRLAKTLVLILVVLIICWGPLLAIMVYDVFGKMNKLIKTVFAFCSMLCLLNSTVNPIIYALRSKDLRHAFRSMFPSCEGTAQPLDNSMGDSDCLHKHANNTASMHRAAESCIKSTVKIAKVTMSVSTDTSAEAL

In the case of `CCCCOc1cc(/C=C/C(=O)NCCc2ccc(O)cc2)ccc1OC` [Example 1-4], the inhibition constant Ki in experiment [1] was 960 nM; in experiment [2] it was 7.7 nM. Also, the C/S in experiment [2] amounted to 125. Moreover, the figures for the ED50 in experiment [3] and in experiment [4] were 0.55 mg/kg and 0.71 mg/kg, respectively.
The molecule `CCCCCOc1ccc2c(c1OCCCCC)CN(CCc1ccc(N)cc1)C2=O` [Example 7-34, 2-[2-(4-aminophenyl)ethyl]-4,5-bispentyloxy-2,3-dihydroisoindol-1-one] came in with a Ki in experiment [1] of 330 nM. Moreover, in experiment [2], the C/S amounted to 3000. Also, the ED50 in experiment [3] amounted to 0.29 mg/kg; in experiment [4] it was 0.012 mg/kg.
Consider `CCCCCOc1ccc2c(c1OCCCCC)CN(CCc1ccc([N+](=O)[O-])cc1)C2=O` [Example 7-30, 4,5-dipentyloxy-2-[2-(4-nitrophenyl)ethyl]-2,3-dihydroisoindol-1-one], for which the figures for the Ki in experiment [1] and in experiment [2] were 2600 nM and 1.8 nM, respectively. For the same molecule, the C/S in experiment [2] turned out to be 1440. Moreover, the ED50 in experiment [3] was less than 0.01 mg/kg; in experiment [4], 0.021 mg/kg.
In the same order, the values of `CCCCCOc1cc(C(=O)NCCc2cccc(O)c2)ccc1OC` [Example 2-13] are 5600 nM, 6.6 nM, 849, 3.2 mg/kg and 5.6 mg/kg.
Consider `CCCCCOc1cc(/C=C/C(=O)NCCc2ccc(O)cc2)ccc1OC` [Example 1-1], for which affinity in experiment [1] was put at a Ki of 230 nM. Also, in experiment [2], the C/S was 48. For the same molecule, the figures for the median effective dose (ED50) in experiment [3] and in experiment [4] were 1 mg/kg and 1.52 mg/kg, respectively.
With `CCCCCOc1cc(/C=C/C(=O)N[C@@H](Cc2ccc(O)cc2)C(=O)OC)ccc1OC` [Example 1-22], the Ki in experiment [1] was 480 nM; in experiment [2] it was 1.4 nM. The C/S in experiment [2] stood at 343. Also, the median effective dose (ED50) was 0.14 mg/kg in experiment [3] and 0.77 mg/kg in experiment [4].
In experiment [1], `CCCCCOc1ccc(C(=O)NCCc2ccc(N)cc2)cc1SCCCCC` [Example 2-52, N-[2-(4-aminophenyl)ethyl]4-pentyloxy-3-pentylthiobenzamide] came in with a Ki of more than 4300 nM. In experiment [2], the C/S is listed as more than 2300. In addition, the ED50 came to 1.85 mg/kg in experiment [3] and 0.58 mg/kg in experiment [4].
As for `CCCCCOc1c(OC)ccc2c1CN(CCc1ccc(N)cc1)C2=O` [Example 7-37, 2-[2-(4-aminophenyl)ethyl]-5-methoxy-4-pentyloxy-2,3-dihydroisoindol-1-one], in experiment [1] (setting [5]), the Ki is 1300 nM. In addition, in experiment [2], the C/S came to 93. Further, the median effective dose (ED50) came to 0.49 mg/kg in experiment [3] and 0.058 mg/kg in experiment [4].
In the same order, the values of `CCCCCOc1c(OC)ccc2c1C(=O)N(CCc1ccc(O)cc1)C2=O` [Example 7-4, 2-[2-(4-hydroxyphenyl)ethyl]-5-methoxy-4-pentyloxyisoindole-1,3-dione] are 1000 nM, 137, 1.6 mg/kg and 1.6 mg/kg.
On to `CCCCCOc1cc(/C=C/C(=O)NCCc2ccc(O)cc2)ccc1OCC` [Example 1-2], for which the values for the Ki in experiment [1] and in experiment [2] were 400 nM and 1.8 nM, respectively. In addition, the C/S in experiment [2] is reported as 222. For the same molecule, the ED50 in experiment [3] is more than 1 mg/kg; in experiment [4], 0.48 mg/kg.
Take `CCCCCOc1c(OC)ccc2c1CCN(CCc1ccc(O)cc1)C2=O` [Example 7-24, 2-[2-(4-hydroxyphenyl)ethyl]-6-methoxy-5-pentyloxy-3,4dihydro-2H-isoquinolin-1-one]: the Ki in experiment [1] was more than 2500 nM. In addition, the C/S in experiment [2] is on record as more than 1389. The ED50 is 0.028 mg/kg in experiment [3] and 0.027 mg/kg in experiment [4].
In the same order, the values of `CCCCCOc1cc(C(=O)NC2CCc3cc(O)c(O)cc3C2)ccc1OC` (stereo not shown) [Example 2-26] are more than 2500 nM, more than 139, more than 10 mg/kg and 3.75 mg/kg.
Take `CCCCCOc1cc(OC)ccc1/C=C/C(=O)N1CCOCC1` [Example 8-2, (E)-[3-(4-methoxy-2-pentyloxyphenyl)-1-oxo-2-propenyl]-4-morpholine]: the inhibitory constant (Ki) amounted to 560 nM in experiment [1] and 8.4 nM in experiment [2]. Moreover, the C/S in experiment [2] was determined as 67. Besides, the ED50 in experiment [3] is 0.5 mg/kg; in experiment [4] it was more than 10 mg/kg.
Molecule `CCCCCOc1ccc(C(=O)NCCc2ccc(O)cc2)cc1OCCCCC` [Example 2-3] came in with a Ki in experiment [1] of more than 3300 nM. Further, the C/S in experiment [2] was more than 8250. Also, the values for the ED50 in experiment [3] and in experiment [4] were 0.17 mg/kg and 0.053 mg/kg, respectively.
For `CCCCCNc1c(OC)ccc2c1CN(CCc1ccc(O)cc1)C2=O` [Example 7-31, 2-[2-(4-hydroxyphenyl)ethyl]-5-methoxy-4-pentylamino-2,3-dihydroindol-1-one], in that order: 11 nM, 125, 0.012 mg/kg and 0.08 mg/kg.
With `CCCCCOc1c(OC)ccc2c(=O)n(CCc3ccc(O)cc3)ccc12` [Example 7-19-1], in experiment [1] (setting [5]), the Ki stood at 200 nM. In addition, the C/S in experiment [2] is given as 54. The ED50 stood at 0.092 mg/kg in experiment [3] and 0.033 mg/kg in experiment [4].
Regarding `CCCCCOc1c(OC)ccc(C2=NC(C)(C)CO2)c1CO` [Example 6-4], the Ki is 650 nM in experiment [1] and 11 nM in experiment [2]. For the same molecule, in experiment [2], the C/S is 59. In addition, the ED50 came out at 0.25 mg/kg in experiment [3] and 10 mg/kg in experiment [4].
As for `CCCCCNc1cc(C(=O)NCCc2ccc(O)cc2)ccc1OC` [Example 2-6], the inhibition constant Ki was determined as 500 nM in experiment [1] (read-out: Ki value, Central receptor (C), rat cerebellar membrane fraction, [3H]Win55212-2 2 nM, 30° C. 90 min) and 1.1 nM in experiment [2]. Moreover, the C/S in experiment [2] is reported as 455. Besides, the ED50 in experiment [3] amounted to 0.3 mg/kg; in experiment [4], 0.72 mg/kg.
Regarding `CCCCCOc1c(OC)ccc2c(=O)n(CCc3ccc(N)cc3)c(=O)[nH]c12` [Example 7-40, 3-[2-(4-aminophenyl)ethyl]-7-methoxy-8-pentyloxy-1H-quinazoline-2,4-dione], the inhibition constant (Ki) was 109 nM in experiment [1] and less than 3.7 nM in experiment [2]. Also, the C/S in experiment [2] is reported as more than 30. Also, the 50% effect level in experiment [3] (ED50) was put at a dose of 0.016 mg/kg.
Consider `CCCCCOc1cc(C(=O)NCCc2ccc(O)cc2)ccc1OC` [Example 2-1, N-[2-(4-hydroxyphenyl)ethyl]-(4-methoxy-3-pentyloxy)benzamide], for which the inhibition constant Ki in experiment [1] (setting [5]) is 1400 nM. For the same molecule, the C/S in experiment [2] is 560. In addition, the 50% effective dose (ED50) was found to be 0.04 mg/kg in experiment [3] and 0.14 mg/kg in experiment [4].
Turning to `CCCCOc1cc(C(=O)NCCc2ccc(O)cc2)ccc1OC` [Example 2-7], the Ki in experiment [1] is more than 2500 nM; in experiment [2] it was 9.5 nM. For the same molecule, the C/S in experiment [2] was determined as 263. Also, the results for the median effective dose (ED50) in experiment [3] and in experiment [4] were 2.28 mg/kg and 2.35 mg/kg, respectively.
`CCCCCSc1cc(/C=C/C(=O)NCCc2ccc(O)cc2)ccc1OC` [Example 1-34, N-[2-(4-hydroxyphenyl)ethyl]-3-(4-methoxy-3-pentylthiophenyl)acrylamide] had a Ki in experiment [1] of 930 nM. The C/S in experiment [2] came to 845. Also, the 50% effective dose (ED50) in experiment [3] turned out to be 0.59 mg/kg; in experiment [4], 1.95 mg/kg.
On to `CCCCCCOc1cc(C(=O)NCCc2ccc(O)cc2)ccc1OC` [Example 2-8], for which the Ki worked out at 1000 nM in experiment [1] and 3.7 nM in experiment [2]. For the same molecule, the C/S in experiment [2] was found to be 270. Moreover, the values for the median effective dose (ED50) in experiment [3] and in experiment [4] were 0.73 mg/kg and 1.45 mg/kg, respectively.
For the molecule `CCCCCOc1cc(C(=O)NCCc2ccncc2)ccc1OC` [Example 2-16], in experiment [1] (setting [5]), the Ki is more than 4300 nM. Also, the C/S in experiment [2] is recorded as more than 59. In addition, the ED50 in experiment [3] worked out at 1.1 mg/kg; in experiment [4], 1.95 mg/kg.
